In patent US6531446B1, “Peptides having biological activity” (Korea Advanced Institute of Science and Technology, priority 1998, dated 2003):
Where two headings read alike, the source gives them in different places. No end group written: not given here.

How the values were obtained:
Format in all cases: cell-based
Streptococcus pneumoniae = tested on: Streptococcus pneumoniae
Procedure: (§1) By using the peptides as in Example 1, the minimal inhibitory concentration of the peptides were determined against a variety of microorganisms. Bacteria and fungi were incubated overnight in Mller-Hinton and Saboraud media, respectively, at 37 and 30° C., respectively, and were inoculated in media for 2 hours to a midlogarithmic phase. After diluting the bacteria and fungi to 10^4-10^5 per 1 ml, they were inoculated into a 96-well plate containing serially diluted peptides and incubated for additional 18 hours. The minimal inhibitory concentration was determined at a concentration that inhibits the growth of the microorganisms by measuring the absorbance.

Serratia sp. = tested on: Serratia sp.
Procedure: as §1

Saccharomyces cerevisiae = tested on: Saccharomyces cerevisiae
Procedure: as §1

Bacillus subtilis = tested on: Bacillus subtilis
Procedure: as §1

Cryptococcus neoformans = tested on: Cryptococcus neoformans
Procedure: as §1

Streptococcus mutans = tested on: Streptococcus mutans
Procedure: as §1

Candida albicans = tested on: Candida albicans
Procedure: as §1

Escherichia coli = tested on: Escherichia coli
Procedure: as §1

Staphylococcus aureus = tested on: Staphylococcus aureus
Procedure: as §1

Salmonella typhimurium = tested on: Salmonella typhimurium
Procedure: as §1

[1] = tested on: a variety of microorganisms; assay: Estimation of antimicrobial activity, overall statement in words; conditions: result in words
Procedure: as §1

Psudomonas putida = assay: Minimal inhibitory concentration, 96-well broth dilution; conditions: Gram-negative; second part of Table 2
Procedure: as §1

[2] = Gram-positive, second part of Table 2
[3] = Gram-negative, second part of Table 2

| Substance | antimicrobial activity [1] | Minimal Inhibitory Concentrations (Streptococcus pneumoniae; [2]) [μg/m] | Minimal Inhibitory Concentrations (Serratia sp.; [3]) [μg/m] | Minimal Inhibitory Concentrations (Saccharomyces cerevisiae; Fungi, second part of Table 2) [μg/m] | Minimal Inhibitory Concentrations (Bacillus subtilis; [2]) [μg/m] | Minimal Inhibitory Concentrations (Cryptococcus neoformans; Fungi, second part of Table 2) [μg/m] | Minimal Inhibitory Concentrations (Streptococcus mutans; [2]) [μg/m] | Minimal Inhibitory Concentrations (Candida albicans; Fungi, second part of Table 2) [μg/m] | Minimal Inhibitory Concentrations (Escherichia coli; [3]) [μg/m] | Minimal Inhibitory Concentrations (Staphylococcus aureus; [2]) [μg/m] | Minimal Inhibitory Concentrations (Salmonella typhimurium; [3]) [μg/m] | Minimal Inhibitory Concentrations (Psudomonas putida) [μg/m] | further results |
| --- | --- | --- | --- | --- | --- | --- | --- | --- | --- | --- | --- | --- | --- |
| PVGRVHRLLRK [Seq No. 7] | strong antimicrobial activity |  |  |  |  |  |  |  |  |  |  |  | Minimal Inhibitory Concentrations (Streptococcus pneumoniae; 18 h): 50 µg/mL; Minimal Inhibitory Concentrations (Serratia sp.; 18 h): 25 µg/mL; Minimal Inhibitory Concentrations (Saccharomyces cerevisiae; 18 h): 50 µg/mL; Minimal Inhibitory Concentrations (Bacillus subtilis; 18 h): 25 µg/mL; Minimal Inhibitory Concentrations (Cryptococcus neoformans; 18 h): 50 µg/mL; Minimal Inhibitory Concentrations (Streptococcus mutans; 18 h): 25 µg/mL; Minimal Inhibitory Concentrations (Candida albicans; 18 h): 50 µg/mL; Minimal Inhibitory Concentrations (Escherichia coli; 18 h): 25 µg/mL; Minimal Inhibitory Concentrations (Staphylococcus aureus; 18 h): 50 µg/mL; Minimal Inhibitory Concentrations (Salmonella typhimurium; murium, 18 h): 50 µg/mL |
| RLLRRLLRRLLRRLLRRLLR [Seq No. 13] | strong antimicrobial activities | 2 | 1 | 8 | 2 | 8 | 2 | 8 | 2 | 1 | 2 | 2 |  |
| RKGLQKLVGRVHRLLRK [Seq No. 12] |  | 18 | 4 | 4 | 18 | 8 | 36 | 16 | 18 | 18 | 18 | 36 |  |
| Arg Ala Gly Leu Gln Phe Pro Val Gly Arg Val His Arg Leu Leu Arg Lys-NH2 (RAGLQFPVGRVHRLLRK-NH2) [Seq No. 16] |  | 1 | 1 | 2 | 1 | 1 | 0.5 | 2 | 2 | 1 | 2 | 2 |  |
| RVHRLLRRVHRLLRRVHRLLR [Seq No. 14] |  | 100 | 3 | >200 | 6 | 100 | 25 | >200 | 100 | 50 | 50 | 50 |  |
| RAGLQFPVGRLLRRLLRRLLR [Seq No. 15] | especially potent antimicrobial activity | 1 | 1 | 4 | 1 | 1 | 0.5 | 2 | 1 | 1 | 1 | 1 |  |
| RLLRRLLRRLLR [(RLLR)3] |  | 16 | 16 | 32 | 16 | 32 | 16 | 32 | 32 | 16 | 16 | 16 |  |
| RLLRRLLRRLLRRLLR [(RLLR)4] | strong antimicrobial activities | 2 | 1 | 8 | 2 | 8 | 2 | 8 | 2 | 1 | 2 | 2 |  |
| RAGLQFPVGRLLRRLLR [Buf(5-13)[RLLR]2] |  | 8 | 8 | 8 | 4 | 4 | 16 | 4 | 8 | 8 | 4 | 16 |  |
| RAGLQFPVGRLLR [Buf(5-13)[RLLR]] |  | 32 | 32 | 32 | 32 | 32 | 16 | 32 | 32 | 64 | 16 | 32 |  |
